Laboratory results: patent US12617794B2, “GABAA positive allosteric modulator compounds, methods of making, and uses thereof” (NEUROCYCLE THERAPEUTICS, INC., priority 2019, dated 2026)
Converted amounts (≈) assume the structure as drawn. Structures can show the parent of a compound that is named as a salt. Where two headings read alike, the source gives them in different places. One block for each molecule: values may come before it.

Assays:
Type in all cases: physicochemical
[1] = Dynamic vapor sorption (DVS) of salts (38.9); conditions: for DVS absorption / moisture: between 0% to 90% RH
Method: DVS was determined using IGA Sorp (Hiden Isochema, UK). The sample was tested at a targeted RH of 0 to 90% full cycle in step mode. The analysis was performed in 10% RH increments.

[2] = Intrinsic dissolution rate in SGF (Example 16); conditions: 37° C., 100 rpm, linear scope within 2 to 120 min
Method: About 100 mg of Free Base Polymorphic Form A or Phosphate Polymorphic Form A was weighed into the intrinsic dissolution apparatus and the sample compressed for 1 minute with a compression force of ˜4 MPa to form a compacted pellet within the stainless-steel die. All loose powder was removed from the surface of the die. The intrinsic dissolution shaft was connected with the stainless-steel die and tightened so only one surface of the pellet was exposed (surface area=0.496 cm^2). The shaft in the spindle was adjusted to ensure the exposed surface of the compacted tablet was ˜3.8 cm from the bottom of the vessel when lowered. The temperature of chamber water was set at 37° C.±0.5° C., the shaft rotation at 100 rpm and the sampling time points at 2, 5, 10, 15, 30, 45, 60, 120 min. SGF was used as dissolution medium (900 mL). At each time point, solution samples were filtered, and the supernatant was analyzed by HPLC-UV.

[3] = One week accelerated stability testing (Example 3)
Method: The stability of Phosphate Polymorphic Form A and Free Base Polymorphic Form A were evaluated under accelerated conditions.

[4] = Solubility in aqueous buffers, SGF, FaSSIF and FeSSIF (Example 15); conditions: ~20-25° C., ~24 hours; for solubility thermodynamic: 20 °C, thermodynamic from solid, read-out: Measured Conc.; for Measured Conc. (μg/mL): LOQ: 0.1 μg/mL
Method: About 2 mg of test article was added to a 1.5 mL vials which contained ˜1.0 mL of one medium listed in Table 7 and Table 8, which was then sealed. The mixtures were stirred at ˜20-25° C. for ˜24 hours. After that, the mixture was filtered by 0.45 μm filter membrane and then the supernatant was analyzed by HPLC.

[5] = Solid stability of free base and salts at 60° C. and 40° C./75% RH (38.3, Example 48); conditions: for chemical stability / physical stability (crystal form by XRPD): 60° C. and 40° C./75% RH for 7 days; for Crystal form day 7: XRPD
Method: Samples of TPA023B Free Base, TPA023B chloride, TPA023B besylate, and TPA023B sulfate were mounted on stability at 60° C. and 40° C./75% RH for up to 7 days. At day-0, day-3 and day-7, the samples were dissolved in diluent to prepare solutions at 0.5 mg/mL for HPLC analysis. Solid samples were analyzed by XRPD to determine the crystal form.
Solid samples were examined using D8 ADVANCE X-ray diffractometer (Bruker). The diffractometer was equipped with LynxEye detector. In XRPD analysis, samples were scanned from 3 to 40° 2θ at a step of 0.02° 2θ. The tube voltage and current were 40 KV and 40 mA, respectively.

[6] = Reactive crystallization with 1.1 eq phosphoric acid (Example 65); conditions: stirred at RT 7 hours
Method: About 25 mg of Free Base Form H was dissolved or suspended in ˜1 mL of a selected solvent. […] The solid was isolated and characterized.
Free Base Form H was dissolved or suspended in ˜1 mL selected solvent. […] Solid was isolated and characterized. No new phosphate Form was obtained in reactive crystallization under this method.

[7] = Slurry of chloride or besylate salt in EA or heptane at 50° C. overnight; conditions: slurried in EA or heptane at 50° C. overnight
[8] = 40° C./75% RH, listed as Free base (Form A)
[9] = 60° C., listed as Free base (Form A)

Structure (SMILES): CC(C)(O)c1cnn2c(-c3ccc(F)c(-c4c(F)cccc4C#N)c3)cnc2n1 [Free Base Polymorphic Form H, 2′,6-difluoro-5′-[3-(1-hydroxy-1-methylethyl)-imidazo[1,2-b][1,2,4]triazin-7-yl]biphenyl-2-carbonitrile]
Result (solid form obtained) ([6]; solvent 1,4-dioxane): Phosphate Form A
Result (solid form obtained) ([6]; solvent ACN): Phosphate Form A
Result (solid form obtained) ([6]; solvent Acetone): Phosphate Form A
Result (solid form obtained) ([6]; solvent BAC): Phosphate Form A
Result (solid form obtained) ([6]; solvent Cyclohexanone): Phosphate Form A
Result (solid form obtained) ([6]; solvent DCM): Phosphate Form A
Result (solid form obtained) ([6]; solvent DEE): Phosphate Form A
Result (solid form obtained) ([6]; solvent EA): Phosphate Form A
Result (solid form obtained) ([6]; solvent IPAC): Phosphate Form A
Result (solid form obtained) ([6]; solvent MEK): Phosphate Form A
Result (solid form obtained) ([6]; solvent MTBE): Phosphate Form A
Result (solid form obtained) ([6]; solvent N-pentane): Phosphate Form A
Result (solid form obtained) ([6]; solvent PPG 2000): Phosphate Form A
Result (solid form obtained) ([6]; solvent Trichloromethane): Phosphate Form A
Result (solid form obtained) ([6]; solvent polysorbate 80): Phosphate Form A

Structure (SMILES): CC(C)(O)c1cnn2c(-c3ccc(F)c(-c4c(F)cccc4C#N)c3)cnc2n1 [TPA023B Besylate (Form A), 2′,6-difluoro-5′-[3-(1-hydroxy-1-methylethyl)-imidazo[1,2-b][1,2,4]triazin-7-yl]biphenyl-2-carbonitrile]
XRPD after DVS [1]: No XRPD change after
DVS absorption / moisture [1]: DVS: 0-1.047% moisture
crystal form after slurry [7]: remained unchanged
HPLC Purity (%) day 3 ([5]; 40° C./75% RH): 98.8%
HPLC Purity (%) day 7 ([5]; 40° C./75% RH): 98.8%
Crystal form day 7 ([5]; 40° C./75% RH): three extra peaks
Crystal form day 7 ([5]; 40° C./75% RH, listed as TPA-23B besylate): three extra peaks
chemical stability [5]: chemically stable
HPLC Purity (%) day 3 ([5]; 60° C.): 98.8%
HPLC Purity (%) day 7 ([5]; 60° C.): 98.8%
HPLC Purity (%) day 0 [5]: 98.8%

Structure (SMILES): CC(C)(O)c1cnn2c(-c3ccc(F)c(-c4c(F)cccc4C#N)c3)cnc2n1 [TPA023B Sulfate (Form A), 2′,6-difluoro-5′-[3-(1-hydroxy-1-methylethyl)-imidazo[1,2-b][1,2,4]triazin-7-yl]biphenyl-2-carbonitrile]
XRPD after DVS [1]: No XRPD change after
hygroscopicity [1]: light hygroscopicity
DVS absorption / moisture [1]: DVS: 0-1.206% moisture
HPLC Purity (%) day 3 ([5]; 40° C./75% RH): 98.8%
HPLC Purity (%) day 7 ([5]; 40° C./75% RH): 98.8%
chemical stability [5]: chemically stable
physical stability (crystal form by XRPD) [5]: physically stable
physical stability (crystal form by XRPD) ([5]; listed as TPA-23B sulfate): remained unchanged
HPLC Purity (%) day 3 ([5]; 60° C.): 98.8%
HPLC Purity (%) day 7 ([5]; 60° C.): 98.8%
HPLC Purity (%) day 0 [5]: 98.8%

The remaining lines, values ahead:

XRPD after DVS [1]: No XRPD change after DVS.
DVS absorption / moisture [1]: DVS: 0-1.4691% absorption
Structure (SMILES): CC(C)(O)c1cnn2c(-c3ccc(F)c(-c4c(F)cccc4C#N)c3)cnc2n1 [Chloride Form B, 2′,6-difluoro-5′-[3-(1-hydroxy-1-methylethyl)-imidazo[1,2-b][1,2,4]triazin-7-yl]biphenyl-2-carbonitrile]

intrinsic dissolution rate [2]: 5×10^−5 mg·cm^2·min^−1
Assay (%) ([3]; 40° C./75% RH (open), 1 week): 102.35%
Purity (%) ([3]; 40° C./75% RH (open), 1 week): 98.64%
Assay (%) ([3]; 80° C. (open), 1 week): 101.60%
Purity (%) ([3]; 80° C. (open), 1 week): 98.62%
Purity (%) ([3]; Initial): 98.72%
Assay (%) ([3]; Initial, assay criterion 95%-105%): 105.51%
Assay (%) ([3]; Light, ~50 h): 104.28%
Purity (%) ([3]; Light, ~50 h): 98.60%
Measured Conc. ([4]; Purified water): 0.14 µg/mL
solubility thermodynamic ([4]; fasted-state simulated intestinal fluid (FaSSIF), fassif, FaSSIF): 2.11 µg/mL (≈ 5.39 µM)
solubility thermodynamic ([4]; fed-state simulated intestinal fluid (FeSSIF), fessif, FeSSIF): 9.63 µg/mL (≈ 24.6 µM)
Measured Conc. ([4]; pH 1.2 Hydrochloric Acid Buffer (50 mM)): 9.77 µg/mL
Measured Conc. (μg/mL) ([4]; pH 3.0 citrate buffer (100 mM)): <LOQ
Measured Conc. (μg/mL) ([4]; pH 4.5 citrate buffer (100 mM)): <LOQ
Measured Conc. (μg/mL) ([4]; pH 7.4 PBS (50 mM)): <LOQ
Measured Conc. (μg/mL) ([4]; pH 9.0 USP Buffer (50 mM)): <LOQ
solubility thermodynamic ([4]; simulated gastric fluid (SGF), simulated gastric fluid, SGF): 1.38 µg/mL (≈ 3.53 µM)
HPLC Purity (%) day 3 [5, 8]: 98.2%
HPLC Purity (%) day 7 [5, 8]: 98.2%
chemical stability [5]: chemically stable
physical stability (crystal form by XRPD) ([5]; listed as TPA023B free base): physically stable
physical stability (crystal form by XRPD) ([5]; listed as TPA-23B free base): remained unchanged
HPLC Purity (%) day 3 [5, 9]: 98.1%
HPLC Purity (%) day 7 [5, 9]: 98.3%
HPLC Purity (%) day 0 ([5]; listed as Free base (Form A)): 98.1%
Structure (SMILES): CC(C)(O)c1cnn2c(-c3ccc(F)c(-c4c(F)cccc4C#N)c3)cnc2n1 [Free Base Polymorphic Form A, 2′,6-difluoro-5′-[3-(1-hydroxy-1-methylethyl)-imidazo[1,2-b][1,2,4]triazin-7-yl]biphenyl-2-carbonitrile]

crystal form after slurry [7]: remained unchanged
HPLC Purity (%) day 3 ([5]; 40° C./75% RH): 98.8%
HPLC Purity (%) day 7 ([5]; 40° C./75% RH): 98.7%
chemical stability [5]: chemically stable
physical stability (crystal form by XRPD) [5]: physically stable
physical stability (crystal form by XRPD) ([5]; listed as TPA-23B chloride): remained unchanged
HPLC Purity (%) day 3 ([5]; 60° C.): 98.4%
HPLC Purity (%) day 7 ([5]; 60° C.): 98.4%
HPLC Purity (%) day 0 [5]: 97.6%
Structure (SMILES): CC(C)(O)c1cnn2c(-c3ccc(F)c(-c4c(F)cccc4C#N)c3)cnc2n1 [TPA023B chloride (Form C), 2′,6-difluoro-5′-[3-(1-hydroxy-1-methylethyl)-imidazo[1,2-b][1,2,4]triazin-7-yl]biphenyl-2-carbonitrile]
